We go through two molecules from publication PMC8131842, “Therapeutic Potential of Vasoactive Intestinal Peptide and its Derivative Stearyl-Norleucine-VIP in Inflammation-Induced Osteolysis” (Frontiers in Pharmacology, 2021).

Data set [1] relates to Primary murine macrophages/preosteoclasts. Put plainly: MTT viability assay. Conditions: 10^-6 M, 20 ng/ml M-CSF, 1, 3 and 5 days of treatment, N=5. The data set is classed as cell-based, mouse. The method, then: MTT assay. For proliferation assay, macrophages were plated (4000 cells/well) into 96-well plate with standard medium supplemented with 20 ng of M-CSF. Cells were treated as indicated with either TiP, SNV, VIP (10^−6 M) or vehicle at first day of incubation. Cells viability was determined using dimethylthiazol-diphenyl-tetrazolium-bromide (MTT) after 1, 3 or 5 days. MTT was added to a final concentration of 5 mg/ml and incubated for 4 h at 37°C. After complete solubilization of the die in DMSO, plates were read at 570 nm in a colorimetric plate reader.
FIGURE 4 VIP and SNV alleviate the osteoclastogenic effect of TiP-induced inflammation. (A) Primary BMDM were exposed to TiP and RNA was collected after 24 h. mRNA expression are presented as Mean±SD fold change versus Control. * p<0.05 vs. Control. (B-D) Primary murine preosteoclasts were cultured in 20 ng/ml M-CSF and 50 ng/ml RANKL for 48 h. Conditioned medium from macrophages (Control) and macrophages exposed to Ti particles (Ti, as in A) was then added together with 10^-6M of VIP or SNV (or saline) for 48 h before TRAP staining. Data are Mean±SD for osteoclast % surface area (B) and number per well (C). (D) Representative images all acquired at a 4x original magnification. The scale bar for all images is in the upper left panel. n=8, #p<0.05 vs. Control; *p<0.05 vs. Ti, ANOVA. […]
For orientation: Formazan colour is commonly taken as a measure of viable cells.

For data set [2] the following is noted: matrix not given, ref Gozes et al., 1994, 1996; cited from earlier work. The source says: VIP derivatives and conjugates were designed to include a lipophilic moiety or a shortened VIP chain ([Gozes and Fridkin, 1992]; [Gozes et al., 1994]; [Gozes et al., 1995]; [Gozes et al., 1996]; [Gozes et al., 1999]). Stearyl-norleucine-VIP (Stearyl-Nle^17VIP, SNV) is a lipophilic compound consisting of a VIP molecule with an N-terminal attachment of stearic acid to increase cell and tissue bioavailability and an exchange of the oxidation-vulnerable methionine at position 17 with the stable norleucine.

In data set [3] the test system is Guinea pigs. The data set is described as follows: Study 003 skin sensitization: adjuvant and patch test. The data set is classed as in vivo, guinea pig. The note with it: daily applications for 3 days, SNV 7 mg/animal (1000X). The method, then:
Toxicology. We performed toxicology studies for SNV that consisted of acute subcutaneous, intravenous and oral toxicity in rats, acute dermal toxicity in rabbits, skin sensitization using adjuvant and patch test in guinea pigs, and single and repeated (for 13 weeks) dose toxicity studies in rats. The latter was a 90-days repeated dose toxicity study, consisting of SNV once a day at three different doses to the penis and vagina of male and female rats, respectively. The compound was tested for the treatment of erectile dysfunction. The active dose (7 µg SNV) was chosen as the lowest dose for the study. The highest dosage group in the repeated dose toxicity study received 3,500 µg ([Gozes et al., 1994]). For study 001 (parts 1 through 3), the 1× dose consisted of 0.5 mg SNV dissolved in 7.1 ml vehicle (3.55 ml 10% Sefsol [glycerin monocaprylate] + 3.55 ml isopropanol) and 100µl/animal were administered; the 1000X dose consisted of 91 mg SNV dissolved in 1.3 ml vehicle (0.65 ml 10% Sefsol +0.65 ml isopropanol) and 100µl/animal were administered. For studies 002 through 004, the indicated doses of SNV (Table 1) were dissolved in 0.25 ml 10% Sefsol +0.25 ml 40% isopropanol (vehicle). The methodology for each of the toxicology studies is detailed in Table 1.

`CC[C@H](C)[C@H](NC(=O)[C@H](CO)NC(=O)[C@H](CC(N)=O)NC(=O)[C@H](CC(C)C)NC(=O)[C@H](Cc1ccc(O)cc1)NC(=O)[C@H](CCCCN)NC(=O)[C@H](CCCCN)NC(=O)[C@@H](NC(=O)[C@H](C)NC(=O)[C@H](CCSC)NC(=O)[C@H](CCC(N)=O)NC(=O)[C@H](CCCCN)NC(=O)[C@H](CCCN=C(N)N)NC(=O)[C@H](CC(C)C)NC(=O)[C@H](CCCN=C(N)N)NC(=O)[C@@H](NC(=O)[C@H](Cc1ccc(O)cc1)NC(=O)[C@H](CC(N)=O)NC(=O)[C@H](CC(=O)O)NC(=O)[C@@H](NC(=O)[C@H](Cc1ccccc1)NC(=O)[C@@H](NC(=O)[C@H](C)NC(=O)[C@H](CC(=O)O)NC(=O)[C@H](CO)NC(=O)[C@@H](N)Cc1c[nH]cn1)C(C)C)[C@@H](C)O)[C@@H](C)O)C(C)C)C(=O)N[C@@H](CC(C)C)C(=O)N[C@@H](CC(N)=O)C(N)=O` [VIP, Vasoactive intestinal peptide]: the “Viability of the cells (MTT, optical density)” value in data set [1] was “neither VIP nor SNV affected the viability”. The Half-life in data set [2] is given as around 30 s.

Take `O=[N+]([O-])c1ccc(Cl)c([N+](=O)[O-])c1` [1%-chloro-2,4-dinitrobenzene, reference compound]: the Mortality result in data set [3] (adjuvant and patch test) is “None”. Further, the Skin reactions result in data set [3] (intradermal Freund's complete adjuvant and patch application, 3 males + 3 females per group) was “severe erythema, edema and necrosis”.
